Results: article PMC11148078, “Potent activity of polymyxin B is associated with long-lived super-stoichiometric accumulation mediated by weak-affinity binding to lipid A” (Nature Communications, 2024)
Where two headings read alike, the source gives them in different places. Bridge positions count the residues as written; N and C are the ends. Square brackets hold non-standard residues; d marks the D form. Peptide text beside a SMILES is read from it. * marks the point of attachment. X1 = CC[C@H](C)CCCCC(=O)*; Dab = NCC[C@H](N)C(=O)O

Key:
lipid A / outer membrane = system: lipid A / outer membrane; parameters: method as in PMID 6414364, PMID 10956216; conditions: ref [20],[21]; cited from earlier work
bacterial cells = conditions: different methods, ref [27]–[31], cited from earlier work
Description: Investigations into the binding of polymyxins to bacterial cells have generally relied on whole-cell and plate-based equilibrium approaches. Different methods have produced equilibrium binding constants (KDs) for polymyxin B ranging from 400 nM up to greater than 100 µM[27]–[31], which are, in some cases, multiple orders-of-magnitude higher than the reported cellular potency of these antibiotics. However, these approaches are likely complicated by the rapid kill-kinetics of polymyxins, non-specific binding of polymyxins to plate surfaces, assumptions of a simple binding mechanism, an inoculum ...

wt-OMVs = experiment: SPR chaser analysis (residence time), wt-OMVs; assay type: binding, E. coli; conditions: for t1/2: n≥3, (SD)
Description: The off-rate of the tightly bound fraction was estimated using a chaser analysis, where OMVs were pre-saturated with polymyxin B and then re-saturated after an extended time interval (Supplementary Information Fig. S11A). […] A t1/2 of >6 h was determined for polymyxin B binding to OMVs at both 25 and 37 °C (SI Table S3). The t1/2 of brevicidine, also measured by chaser analysis, was approximately 1 h on both wt-OMVs and polymyxin-resistant-OMVs (SI Table S3).
Binding and kinetic analysis of SPR-OMV assays […]
To determine the residence time of the test compound with OMVs, the ‘chaser method’ was used because it accounts for drift that can occur in the system over long incubation times 13. OMVs were loaded onto the chip as described above then 5 µM polymyxin B was injected using the ‘low-sample consumption’ setting for 300 sec ([…] flow rate), followed by a 240 sec dissociation time. A second dose of 5 µM polymyxin B was then injected for 60 sec ([…]) to assure saturation followed by a 2 h dissociation time prior to the ‘chaser’, a 60 sec pulse of 5 µM polymyxin B. The RUs of associated polymyxin B were determined 120 sec after the start of the dissociation. The change in RUs from before dosing to after the second dose, and the change in RUs from prior to the ‘chaser’ dose and 120 sec after the start of its dissociation were used to calculate the fraction occupancy of the material and the residence time/half-life as described 13. […]
PMBN) to LPS for 20 min. […]
20 sec with a Solarus plasma cleaner (Gatan). Grids were blotted and plunge-frozen by Vitrobot (ThermoFisher Scientific, Waltham, MA) at 4°C, 100% relative humidity, blot force 7, and a 3 sec […]
TEM data collection was performed using a Titan Krios G3i (ThermoFisher Scientific, Waltham, MA) operating at 300 kV equipped with a BioQuantum energy filter and a K3 Summit direct electron detector operating at a nominal magnification of 105,000x (0.838 Å/pixel), an energy slit width of 20 eV, defocus range -1 to -3 μm, 3-sec exposure time, 60 frames per movie, a total electron fluence of ~64 e/Å2. Microscope and camera automation was accomplished by SerialEM14, and image processing (motion correction & CTF estimation) was performed using […]
Standard cryo-EM image processing software and methods were incompatible with the vesicle images, so a blinded visual scoring method for image analysis was used. Approximately 50 images from each sample and treatment condition that each contained at least one OMV (pooled in a single folder and blinded) were scored for number of vesicles touching (0-10+), and if the vesicle membranes appeared disrupted or abnormal. Sampling was not completely random as images of vesicles could not be obtained from areas with significant clumping. Images shown in […]

SMILES: CC(C)C[C@@H]1NC(=O)[C@@H](Cc2ccccc2)NC(=O)[C@H](CCN)NC(=O)[C@@H](NC(=O)[C@H](CCN)NC(=O)[C@@H](N)[C@@H](C)O)CCNC(=O)[C@H]([C@@H](C)O)NC(=O)[C@H](CCN)NC(=O)[C@H](CCN)NC1=O [PMBN] (H-T[Dab][Dab][Dab][dF]L[Dab][Dab]T; lactam 3-C)
- antibacterial activity and lipid A binding (lipid A / outer membrane): do not possess antibacterial activity, nonetheless bind to lipid A and permeabilize the outer membrane

SMILES: CC[C@H](C)CCCCC(=O)N[C@@H](CCN)C(=O)N[C@H](C(=O)N[C@@H](CCN)C(=O)N[C@H]1CCNC(=O)[C@H]([C@@H](C)O)NC(=O)[C@H](CCN)NC(=O)[C@H](CCN)NC(=O)[C@H](CC(C)C)NC(=O)[C@@H](Cc2ccccc2)NC(=O)[C@H](CCN)NC1=O)[C@@H](C)O [Polymyxin B] (X1-[Dab]T[Dab][Dab][Dab][dF]L[Dab][Dab]T; lactam 4-C (inferred); N-terminus assumed)
- Kd (bacterial cells; read-out: equilibrium binding constant KD, lower end): 400 nM
- Kd (bacterial cells; read-out: equilibrium binding constant KD, upper end): > 100000 nM
- t1/2 of tightly bound state (wt-OMVs; 25 and 37 °C): > 6 h
- t1/2 (wt-OMVs; 25 °C): 6.86 (2.11) h
- t1/2 (wt-OMVs; 37 °C): 7.27 (2.15) h
